# Where two headings read alike, the source gives them in different places.
# Tests used:
# C. difficile ATCC 43255 [1] = assay: Initial screening of antiparasitic drugs, broth microdilution MIC; assay type: cell-based, Clostridium difficile; settings: Clostridioides difficile, ATCC43255
# Description: C. difficile strains were grown anaerobically on brain heart infusion supplemented (BHIS) agar plates at 37° C. for 48 hours. Afterwards, a bacterial solution equivalent to 0.5 McFarland standard was prepared and diluted in (BHIS) broth to achieve a bacterial concentration of about 5×10^5 CFU/mL. Drugs were added and serially diluted along the plates. Plates were then, incubated anaerobically at 37° C. for 48 hours. MICs reported in Table (1) are the minimum concentrations of the drugs that could completely suppress the visual growth of bacteria.
# C. difficile P11 = assay: Checkerboard assay, DIHQ with metronidazole or vancomycin; assay type: cell-based, Clostridium difficile; settings: for MIC: Clostridioides difficile
# Description: (§1) Interactions between diiodohydroxyquinoline and the anticlostridial drugs (metronidazole and vancomycin) against Clostridium difficile clinical isolates. […] The fractional inhibitory concentration index (ΣFIC) was calculated for each interaction. Interactions where the ΣFIC index was ≤0.5 were categorized as synergistic (SYN).
# C. difficile I6 = assay: as above; assay type: cell-based, Clostridium difficile; settings: for MIC: Clostridioides difficile
# Description: as §1
# C. difficile P30 = assay: as above; assay type: cell-based, Clostridium difficile; settings: for MIC: Clostridioides difficile
# Description: as §1
# C. difficile P19 = assay: as above; assay type: cell-based, Clostridium difficile; settings: for MIC: Clostridioides difficile
# Description: as §1
# C. difficile ATCC 1801 = assay: as above; assay type: cell-based, Clostridium difficile; settings: for MIC: Clostridioides difficile
# Description: as §1
# C. difficile ATCC 9689 = assay: as above; assay type: cell-based, Clostridium difficile; settings: for MIC: Clostridioides difficile
# Description: as §1
# [2] = tested on: Lactobacillus casei ATCC 334; assay: MIC against normal gut microflora, broth microdilution; assay type: cell-based; settings: Lacticaseibacillus casei, ATCC334
# Description: (§2) In vitro antimicrobial evaluation of diiodohydroxyquinoline against normal microflora. The broth microdilution assay was utilized to determine the MICs of DIHQ and control antibiotics against commensal organisms that compose he human gut microflora, as described elsewhere. A bacterial solution equivalent to 0.5 McFarland standard was prepared and diluted in BHIS broth (for Bifidobacterium and Bacteroides) or in MRS broth (for Lactobacillus) to achieve a bacterial concentration of about 5×10^5 CFU/mL. Then, drugs were added and serially diluted along the plates.
# [3] = tested on: Bifidobacterium breve HM-1120; assay: as above; assay type: cell-based; settings: HM1120
# Description: as §2
# [4] = tested on: Bacteroides fragilis HM-710; assay: as above; assay type: cell-based; settings: HM710
# Description: as §2
# [5] = tested on: Bifidobacterium adolescentis HM-633; assay: as above; assay type: cell-based; settings: HM633
# Description: as §2
# Bacteroides dorei HM-719 = assay: as above; assay type: cell-based; settings: Phocaeicola dorei, HM719
# Description: as §2
# Bacteroides dorei HM-29 = assay: as above; assay type: cell-based; settings: Phocaeicola dorei, HM29
# Description: as §2
# [6] = tested on: Lactobacillus crispatus HM-371; assay: as above; assay type: cell-based; settings: HM371
# Description: as §2
# [7] = tested on: Bifidobacterium longum HM-847; assay: as above; assay type: cell-based; settings: HM847
# Description: as §2
# [8] = tested on: Bifidobacterium breve HM-411; assay: as above; assay type: cell-based; settings: HM411
# Description: as §2
# [9] = tested on: Bifidobacterium angulatum HM-1189; assay: as above; assay type: cell-based; settings: HM1189
# Description: as §2
# [10] = tested on: C. difficile ATCC BAA-1870; assay: Spore inhibition assay; assay type: cell-based, Clostridium difficile; settings: C. difficile ATCC BAA-1870, ½×MIC or 1×MIC, five days
# Description: (§3) The spore inhibition assay was performed as described in previous reports to investigate the effect of diiodohydroxyquinoline on C. difficile spore formation. Briefly, […], the bacterial suspension was split into microcentrifuge tubes and drugs were added (in triplicates) at concentrations equal to ½×MIC or 1×MIC. Tubes were then, incubated anaerobically for five days at 37° C. Thereafter, an aliquot from each tube was diluted and plated on BHIS agar plates supplemented with 0.1% taurocholic acid, to count the total bacterial counts (vegetative bacteria+spores). The remaining solution was centrifuged, and the pellet was suspended in PBS, stored overnight at 4° C., and subsequently shock-heated at 70° C. for 30 minutes to kill the vegetative cells. The resulting solution was serially diluted and plated to determine the heat-resistant spore counts. Spore inhibition assay was performed as described in previous reports to investigate the effect of DIHQ on C. difficile spore formation. Briefly, log-phase cultures of C. difficile strains (ATCC BAA-1870, ATCC 43255, and NR-49277) were diluted in BHIS to an initial density of ˜10^6 CFU/mL. Afterwards, the bacterial suspension was split in small tubes and the drugs were added (in triplicates) at concentrations equal to ½×MIC or 1×MIC. Tubes were then incubated anaerobically for 5 days at 37° C. After that, an aliquot from each tube was diluted and plated on BHIS agar plates supplemented with 0.1% taurocholic acid, to count the total bacterial count (vegetative bacteria+spores). The remaining solution was centrifuged, and the pellet was suspended in PBS and stored overnight at 4° C. then shock heated at 70° C. for 30 minutes to kill the vegetative cells. The resulting solution was serially diluted and plated to determine the heat-resistant spore counts.
# C. difficile ATCC 43255 [11] = assay: Spore inhibition assay; assay type: cell-based, Clostridium difficile; settings: C. difficile ATCC 43255, ½×MIC or 1×MIC, five days
# Description: as §3
# C. difficile NR-49277 = assay: Spore inhibition assay; assay type: cell-based, Clostridium difficile; settings: C. difficile NR-49277, ½×MIC or 1×MIC, five days
# Description: as §3
smiles,measurement,setting,value
"Cc1ncc([N+](=O)[O-])n1CCO [Metronidazole, metronidazole]",MIC,"C. difficile ATCC 43255 [1]; initial screening, C. difficile ATCC 43255, read-out: MIC",0.25 µg/mL
same,MIC of metronidazole combined with DIHQ,C. difficile P11; C. difficile P11,0.03 µg/mL
same,MIC,"C. difficile P11; C. difficile P11, Table 3, read-out: MIC alone",0.25 µg/mL
same,MIC of metronidazole combined with DIHQ,C. difficile I6; C. difficile I6,0.03 µg/mL
same,MIC,"C. difficile I6; C. difficile I6, Table 3, read-out: MIC alone",0.25 µg/mL
same,MIC of metronidazole combined with DIHQ,C. difficile P30; C. difficile P30,0.06 µg/mL
same,MIC,"C. difficile P30; C. difficile P30, Table 3, read-out: MIC alone",0.5 µg/mL
same,MIC of metronidazole combined with DIHQ,C. difficile P19; C. difficile P19,0.06 µg/mL
same,MIC,"C. difficile P19; C. difficile P19, Table 3, read-out: MIC alone",0.5 µg/mL
same,MIC of metronidazole combined with DIHQ,C. difficile ATCC 1801; C. difficile ATCC 1801,0.03 µg/mL
same,MIC,"C. difficile ATCC 1801; ATCC1801, C. difficile ATCC 1801, Table 3, read-out: MIC alone",0.25 µg/mL
same,MIC of metronidazole combined with DIHQ,C. difficile ATCC 9689; C. difficile ATCC 9689,0.03 µg/mL
same,MIC,"C. difficile ATCC 9689; ATCC9689, C. difficile ATCC 9689, Table 3, read-out: MIC alone",0.25 µg/mL
same,MIC,"[2]; Lactobacillus casei ATCC 334, read-out: MIC",16 µg/mL
same,MIC,"[3]; Bifidobacterium breve HM-1120, read-out: MIC",≤ 1 µg/mL
same,MIC,"[4]; Bacteroides fragilis HM-710, read-out: MIC",2 µg/mL
same,MIC,"[5]; Bifidobacterium adolescentis HM-633, read-out: MIC",≤ 1 µg/mL
same,MIC,"Bacteroides dorei HM-719; Bacteroides dorei HM-719, read-out: MIC",≤ 1 µg/mL
same,MIC,"Bacteroides dorei HM-29; Bacteroides dorei HM-29, read-out: MIC",≤ 1 µg/mL
same,MIC,"[6]; Lactobacillus crispatus HM-371, read-out: MIC",> 128 µg/mL
same,MIC,"[7]; Bifidobacterium longum HM-847, read-out: MIC",≤ 1 µg/mL
same,MIC,"[8]; Bifidobacterium breve HM-411, read-out: MIC",2 µg/mL
same,MIC,"[9]; Bifidobacterium angulatum HM-1189, read-out: MIC",≤ 1 µg/mL
same,reduction in spore count (in words),[10],almost no reduction
same,reduction in spore count (in words),C. difficile ATCC 43255 [11],almost no reduction
same,reduction in spore count (in words),C. difficile NR-49277,almost no reduction
"CN[C@H](CC(C)C)C(=O)N[C@H]1C(=O)N[C@@H](CC(N)=O)C(=O)N[C@H]2C(=O)N[C@H]3C(=O)N[C@H](C(=O)N[C@H](C(=O)O)c4cc(O)cc(O)c4-c4cc3ccc4O)[C@H](O)c3ccc(c(Cl)c3)Oc3cc2cc(c3O[C@@H]2O[C@H](CO)[C@@H](O)[C@H](O)[C@H]2O[C@H]2C[C@](C)(N)[C@H](O)[C@H](C)O2)Oc2ccc(cc2Cl)[C@H]1O [Vancomycin, vancomycin]",MIC,C. difficile ATCC 43255 [1],1 µg/mL
same,MIC of vancomycin combined with DIHQ,C. difficile P11; C. difficile P11,0.125 µg/mL
same,MIC,"C. difficile P11; P11, read-out: MIC alone",1 µg/mL
same,MIC of vancomycin combined with DIHQ,C. difficile I6; C. difficile I6,0.06 µg/mL
same,MIC,"C. difficile I6; I6, read-out: MIC alone",0.5 µg/mL
same,MIC of vancomycin combined with DIHQ,C. difficile P30; C. difficile P30,0.125 µg/mL
same,MIC,"C. difficile P30; P30, read-out: MIC alone",1 µg/mL
same,MIC of vancomycin combined with DIHQ,C. difficile P19; C. difficile P19,0.125 µg/mL
same,MIC,"C. difficile P19; P19, read-out: MIC alone",1 µg/mL
same,MIC of vancomycin combined with DIHQ,C. difficile ATCC 1801; C. difficile ATCC 1801,0.06 µg/mL
same,MIC,"C. difficile ATCC 1801; ATCC1801, read-out: MIC alone",0.5 µg/mL
same,MIC of vancomycin combined with DIHQ,C. difficile ATCC 9689; C. difficile ATCC 9689,0.125 µg/mL
same,MIC,"C. difficile ATCC 9689; ATCC9689, read-out: MIC alone",1 µg/mL
same,MIC,[2],> 128 µg/mL
same,MIC,[3]; Bifidobacterium breve,≤ 1 µg/mL
same,MIC,[4]; Bacteroides fragilis,64 µg/mL
same,MIC,[5]; Bifidobacterium adolescentis,≤ 1 µg/mL
same,MIC,Bacteroides dorei HM-719,64 µg/mL
same,MIC,Bacteroides dorei HM-29,64 µg/mL
same,MIC,[6]; Lactobacillus crispatus,4 µg/mL
same,MIC,[7]; Bifidobacterium longum,≤ 1 µg/mL
same,MIC,[8]; Bifidobacterium breve,≤ 1 µg/mL
same,MIC,[9]; Bifidobacterium angulatum,≤ 1 µg/mL
same,reduction in spore count (in words),[10],almost no reduction
same,reduction in spore count (in words),C. difficile ATCC 43255 [11],almost no reduction
same,reduction in spore count (in words),C. difficile NR-49277,almost no reduction
